From ChEMBL document CHEMBL1157822, “Synthesis and SAR of novel isoquinoline CXCR4 antagonists with potent anti-HIV activity” (Bioorg Med Chem Lett, 2010)
Calls of active or inactive are those of the source. The rule behind the calls is not given here.

How the values were obtained:
[1] = Cytotoxicity against human HOS cells expressing human CXCR4/CCR5/CD4/pHIV-LTR luciferase; type: cell-based
[2] = system: Human immunodeficiency virus 1; assay: Antiviral activity against HIV1 3B infected in human HOS cells expressing human CXCR4/CCR5/CD4/pHIV-LTR luciferase assessed as inhibition of viral infection to cells; type: functional, organism-based; conditions: Human immunodeficiency virus 1, 3B
[3] = Oral bioavailability in rat at 3 mg/kg; type: ADME, organism-based; conditions: in vivo
[4] = Clearance in rat at 1 mg/kg, iv; type: ADME, organism-based; design: dose 1 mg/kg, route intravenous; conditions: in vivo
[5] = Half life in rat at 1 mg/kg, iv; type: ADME, organism-based; design: dose 1 mg/kg, route intravenous; conditions: in vivo
[6] = Volume of distribution in rat at 1 mg/kg, iv; type: ADME, organism-based; design: dose 1 mg/kg, route intravenous; conditions: in vivo
[7] = target: T1, C-X-C chemokine receptor type 4 (Homo sapiens, UniProt P61073); assay: Antagonist activity at human CXCR4 expressed in HEK293 cells; type: functional, cell-based
T1 sequence (P61073 whole entry): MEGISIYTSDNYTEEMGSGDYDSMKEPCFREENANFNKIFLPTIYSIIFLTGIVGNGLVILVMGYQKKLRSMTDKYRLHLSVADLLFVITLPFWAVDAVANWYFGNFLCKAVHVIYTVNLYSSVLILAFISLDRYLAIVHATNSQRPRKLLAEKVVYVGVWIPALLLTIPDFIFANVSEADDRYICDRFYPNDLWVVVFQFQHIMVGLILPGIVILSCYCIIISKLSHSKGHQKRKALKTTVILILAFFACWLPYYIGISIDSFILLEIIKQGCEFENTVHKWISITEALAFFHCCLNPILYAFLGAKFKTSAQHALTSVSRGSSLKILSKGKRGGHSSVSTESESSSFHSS

[8] = target: T1, C-X-C chemokine receptor type 4; assay: Binding affinity to human CXCR4 expressed in HEK293 cells; type: cell-based

Structure (SMILES) | IC50 [2] [nM] | bioavailability [3] [%] | clearance [4] [mL/min/kg] | half-life [5] [h] | Vd [6] [L/kg] | Activity [7] | IC50 [8] [nM] | CC50 [1] [nM]
NCCCCN(Cc1cn2ccccc2n1)C1CCCc2cccnc21 (racemic) | 42 |  |  |  |  |  |  | > 20000
NCCCCN(Cc1cccnc1)C1CCCc2cccnc21 (racemic) | > 20000 |  |  |  |  |  |  | > 20000
CN1CCC[C@@H]1C(=O)NCc1c(CN(C)[C@H]2CCCc3cccnc32)ncc2ccccc12 | 12 |  |  |  |  |  |  | 690
NCCCCN(Cc1cc2ccccc2cn1)C1CCCc2cccnc21 (racemic) | 12 |  |  |  |  |  |  | 13000
CN(Cc1cc2ccccc2cn1)[C@H]1CCCc2cccnc21 | 160 |  |  |  |  |  |  | 650
NCCCCN(Cc1nc2ccccc2[nH]1)C1CCCc2cccnc21 (racemic) | 23 |  |  |  |  | Active |  | 13000
NCCCCN(Cc1nc2ccccc2s1)C1CCCc2cccnc21 (racemic) | 200 |  |  |  |  |  |  | 13000
Cn1ccnc1CN(CCCCN)C1CCCc2cccnc21 (racemic) | 120 |  |  |  |  |  |  | > 20000
NCCCCN(Cc1ccc2ccccc2n1)C1CCCc2cccnc21 (racemic) | 34 |  |  |  |  |  |  | 12000
NCCCCN(Cc1ccccn1)C1CCCc2cccnc21 (racemic) | 70 |  |  |  |  |  |  | 11000
NCCCCN(Cc1nccs1)C1CCCc2cccnc21 (racemic) | 340 |  |  |  |  |  |  | 9700
Cn1cncc1CN(CCCCN)C1CCCc2cccnc21 (racemic) | > 20000 |  |  |  |  |  |  | > 20000
NCCCCN(Cc1nccc2ccccc12)C1CCCc2cccnc21 (racemic) | 11 |  |  |  |  |  |  | 8200
CN1CCC[C@H]1C(=O)NCc1c(CN(C)[C@H]2CCCc3cccnc32)ncc2ccccc12 | 44 |  |  |  |  |  |  | 540

Now from value to molecule, other results behind:

IC50 [2] [nM] | bioavailability [3] [%] | clearance [4] [mL/min/kg] | half-life [5] [h] | Vd [6] [L/kg] | Activity [7] | IC50 [8] [nM] | Structure (SMILES) | CC50 [1] [nM]
41 |  |  |  |  |  |  | CN(Cc1ncc2ccccc2c1CNS(C)(=O)=O)[C@H]1CCCc2cccnc21 | 2000
38 | 20 | 16 | 3.1 | 1.7 |  |  | CN(C)C(=O)NCCCc1c(CN(C)[C@H]2CCCc3cccnc32)ncc2ccccc12 | 750
27 |  |  |  |  |  |  | CN(Cc1ncc2ccccc2c1CN)[C@H]1CCCc2cccnc21 | 3100
20 | 0 | 16 | 12 | 9 |  |  | CN(Cc1ncc2ccccc2c1CNC(=N)N)[C@H]1CCCc2cccnc21 | 9000
48 |  |  |  |  |  |  | CN(C)Cc1c(CN(C)[C@H]2CCCc3cccnc32)ncc2ccccc12 | 5900
12 |  |  |  |  |  |  | CN(Cc1ncc2ccccc2c1CCCN)[C@H]1CCCc2cccnc21 | 1000
21 |  |  |  |  |  |  | CN(Cc1ncc2ccccc2c1CCC#N)[C@H]1CCCc2cccnc21 | 950
72 |  |  |  |  |  |  | CN(Cc1ncc2ccccc2c1C#N)[C@H]1CCCc2cccnc21 | 1300
17 |  |  |  |  |  |  | CN(Cc1ncc2ccccc2c1CCCNC(=N)N)[C@H]1CCCc2cccnc21 | 6500
5 | 6 | 6.1 | 2.9 | 2.9 | Active | 3.4 | CN(C)CCCc1c(CN(C)[C@H]2CCCc3cccnc32)ncc2ccccc12 | 650
16 | 4 | 9.5 | 5.8 | 1.4 |  |  | CN(Cc1ncc2ccccc2c1CCCNS(C)(=O)=O)[C@H]1CCCc2cccnc21 | 690
12 | 10 | 11 | 1.5 | 1.5 | Active | 16 | CN(C)CC(=O)NCc1c(CN(C)[C@H]2CCCc3cccnc32)ncc2ccccc12 | 480
